Here are results for 24 compounds from patent publication US8946266B2, “Substituted triazole and imidazole derivatives as gamma secretase modulators” (Janssen Pharmaceuticals, Inc., priority 2009, dated 2015).

In general, IC50 refers to the concentration needed to halve the response being measured.

In assay [1] the test system is Aβtotal. As to the kind of experiment: In vivo efficacy, Method 2: brain soluble Aβtotal lowering 4 h after a single oral dose, ELISA (Table 4b). Also noted: species or system mouse. The following applies: dose 30 mg/kg oral dosing. The text has this:
(§1) To determine whether acute administration of an Aβ42 lowering agent would reduce Aβ42 levels in vivo, non-transgenic rodents, e.g. mice or rats were used. Animals treated with the Aβ42 lowering agent were examined and compared to those untreated or treated with vehicle and brain levels of soluble Aβ42 and total Aβ were quantitated by standard techniques, for example, using ELISA. Treatment periods varied from hours (h) to days and were adjusted based on the results of the Aβ42 lowering once a time course of onset of effect could be established.
(§2) A typical protocol for measuring Aβ42 lowering in vivo is shown but it is only one of many variations that could be used to optimize the levels of detectable Aβ. For example, Aβ42 lowering compounds were formulated in 20% of Captisol® (a sulfobutyl ether of β-cyclodextrin) in water or 20% hydroxypropyl β cyclodextrin. The Aβ42 lowering agents were administered as a single oral dose or by any acceptable route of administration to overnight fasted animals. After 4 h, the animals were sacrificed and Aβ42 levels were analysed.
(§3) Blood was collected by decapitation and exsanguinations in EDTA-treated collection tubes. Blood was centrifuged at 1900 g for 10 minutes (min) at 4° C. and the plasma recovered and flash frozen for later analysis. The brain was removed from the cranium and hindbrain. The cerebellum was removed and the left and right hemisphere were separated. The left hemisphere was stored at −18° C. for quantitative analysis of test compound levels. The right hemisphere was rinsed with phosphate-buffered saline (PBS) buffer and immediately frozen on dry ice and stored at −80° C. until homogenization for biochemical assays.
(§4) Mouse brains from non-transgenic animals were resuspended in 8 volumes of 0.4% DEA (diethylamine)/50 mM NaCl containing protease inhibitors (Roche-11873580001 or 04693159001) per gram of tissue, e.g. for 0.158 g brain, add 1.264 ml of 0.4% DEA. All samples were homogenized in the FastPrep-24 system (MP Biomedicals) using lysing matrix D (MPBio #6913-100) at 6 m/s for 20 seconds. Homogenates were centrifuged at 221.300×g for 50 min. The resulting high speed supernatants were then transferred to fresh eppendorf tubes. Nine parts of supernatant were neutralized with 1 part 0.5 M Tris-HCl pH 6.8 and used to quantify Aβtotal and Aβ42.
(§5) To quantify the amount of Aβtotal and Aβ42 in the soluble fraction of the brain homogenates, Enzyme-Linked-Immunosorbent-Assays were used. Briefly, the standards (a dilution of synthetic Aβ1-40 and Aβ1-42, Bachem) were prepared in 1.5 ml Eppendorf tube in Ultraculture, with final concentrations ranging from 10000 to 0.3 pg/ml. The samples and standards were co-incubated with HRPO-labelled N-terminal antibody for Aβ42 detection and with the biotinylated mid-domain antibody 4G8 for Aβtotal detection. 50 μl of conjugate/sample or conjugate/standards mixtures were then added to the antibody-coated plate (the capture antibodies selectively recognize the C-terminal end of Aβ42, antibody JRF/cAβ42/26, for Aβ42 detection and the N-terminus of Aβ, antibody JRF/rAβ/2, for Aβtotal detection). The plate was allowed to incubate overnight at 4° C. in order to allow formation of the antibody-amyloid complex. Following this incubation and subsequent wash steps the ELISA for Aβ42 quantification was finished by addition of Quanta Blu fluorogenic peroxidase substrate according to the manufacturer's instructions (Pierce Corp., Rockford, Ill.). A reading was performed after 10 to 15 min (excitation 320/emission 420).
For Aβtotal detection, a Streptavidine-Peroxidase-Conjugate was added, followed 60 min later by an additional wash step and addition of Quanta Blu fluorogenic peroxidase substrate according to the manufacturer's instructions (Pierce Corp., Rockford, Ill.). A reading was performed after 10 to 15 min (excitation 320 nm/emission 420 nm).
(§6) The results are shown in Table 4b (dose 30 mg/kg oral dosing): […]

Assay [2] relates to Aβtotal. The assay can be described thus: γ-secretase-modulating activity, Method 2: Aβtotal Alphalisa in supernatant of SKNBE2 cells carrying APP 695-wild type (Table 3b). The assay is classed as cell-based. To be noted: overnight, read-out: IC50 Aβtot. The procedure, abridged: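 Secreted Aβtotal was quantified by AlphaLISA pairing an N-terminal antibody (JRF/AβN/25) with biotinylated mid-region 4G8. Wild-type APP 695 SKNBE2 cells received serially varied compound overnight at 37 °C; IC50 came from a 4-parameter nonlinear regression of percent of control against log dose.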
For orientation: Bead proximity is the source of the signal in Alpha formats.

Assay [3] has as its system Aβ42. The assay can be described thus: In vivo efficacy, Method 2: brain soluble Aβ42 lowering 4 h after a single oral dose, ELISA (Table 4b). The following applies: dose 30 mg/kg oral dosing. On the set-up: species or system mouse.
Text: as §1, §2, §3, §4, §5
In this model at least 20% Aβ42 lowering compared to untreated animals would be advantageous.
as §6
In general terms: ELISA stands for enzyme-linked immunosorbent assay.

Assay [4] relates to Aβ42. As to the kind of experiment: γ-secretase-modulating activity, Method 2: Aβ42 Alphalisa in supernatant of SKNBE2 cells carrying APP 695-wild type (Table 3b). To be noted: overnight. The assay is classed as cell-based. A digest of the protocol: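 Aβ42 in the supernatant was quantified by AlphaLISA sandwich (JRF/cAβ42/26 with JRF/AβN/25). Cells were wild-type APP695 SKNBE2, exposed to compound overnight at 37° C., 5% CO2. Data were normalised to untreated maximum and fitted with a four-parameter curve to give IC50.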

`Cc1cn(-c2ccc(-c3nc(Nc4cc(C(F)(F)F)ccc4F)n(C)n3)cc2C#N)cn1` [Compound 322]: the “Aβtotal (% Ctrl) _Mean” value in the assay on Aβtotal [1] was −4 % Ctrl. Further, the IC50 in the assay with Aβtotal [2] is greater than 15000 nM; with Aβ42 [4] it was 36 nM. The “Aβ42 (% Ctrl) _Mean” value with Aβ42 [3] is −5 % Ctrl.
`COc1cc(-c2nc(Nc3cc(C(F)(F)F)cc(OC)c3F)n(C)n2)ccc1-n1cnc(C)c1` [Compound 203]: the “Aβtotal (% Ctrl) _Mean” value in the assay on Aβtotal [1] is 6 % Ctrl. Further, the IC50 in the assay on Aβtotal [2] was greater than 10000 nM; in the assay on Aβ42 [4] it was 10 nM. Moreover, in the assay on Aβ42 [3], the “Aβ42 (% Ctrl) _Mean” value was determined as 54 % Ctrl.
As for `COc1nc(-c2nc(Nc3ccc(F)cc3C(F)(F)F)n(C)n2)ccc1-n1cnc(C)c1` [Compound 158], the “Aβtotal (% Ctrl) _Mean” value in the assay with Aβtotal [1] is listed as 3 % Ctrl. The values for the IC50 with Aβtotal [2] and in the assay with Aβ42 [4] were greater than 10000 nM and 40 nM, respectively. In the assay with Aβ42 [3], the “Aβ42 (% Ctrl) _Mean” value is on record as 44 % Ctrl.
For `COc1cc(-c2nc3n(n2)CCC[C@@H]3c2ccccc2C(F)(F)F)ccc1-n1cnc(C)c1` [Compound 260], the “Aβtotal (% Ctrl) _Mean” value in the assay on Aβtotal [1] is on record as −9 % Ctrl. Moreover, the IC50 in the assay on Aβtotal [2] is greater than 15000 nM; with Aβ42 [4], 457 nM. In the assay with Aβ42 [3], the “Aβ42 (% Ctrl) _Mean” value was −1 % Ctrl.
The matching figures for `COCc1ccccc1Nc1nc(-c2ccc(-n3cnc(C)c3)c(OC)c2)nn1C.Cl` [Compound 204]: 2 % Ctrl, greater than 10000 nM, 110 nM and 41 % Ctrl.
For `COc1cc(-c2nc3n(n2)CCOC3c2cc(OC(F)(F)F)ccc2F)ccc1-n1cnc(C)c1` (stereo not drawn) [Compound 128], in that order: 24 % Ctrl, greater than 10000 nM, 28 nM and 47 % Ctrl.
For `COc1cc(-c2nc(Nc3cc(OC(C)C)ccc3F)n(C)n2)ccc1-n1cnc(C)c1` [Compound 307], in that order: −2 % Ctrl, greater than 10000 nM, 8 nM and 19 % Ctrl.
For the compound `COc1cc(-c2nc(Nc3cc(OC(F)(F)F)ccc3F)n(C)n2)ccc1-n1cnc(C)c1` [Compound 185], the “Aβtotal (% Ctrl) _Mean” value with Aβtotal [1] is given as 9 % Ctrl. Moreover, the figures for the IC50 in the assay on Aβtotal [2] and with Aβ42 [4] were greater than 10000 nM and 17 nM, respectively. In addition, the “Aβ42 (% Ctrl) _Mean” value in the assay on Aβ42 [3] came to 40 % Ctrl.
On to `COc1cc(-c2nc(Nc3ccccc3F)n(C)n2)ccc1-n1cnc(C)c1` [Compound 105], for which, in the assay with Aβtotal [1], the “Aβtotal (% Ctrl) _Mean” value is on record as −7 % Ctrl. Also, the half-maximal inhibitory concentration (IC50) in the assay with Aβtotal [2] is greater than 10000 nM; in the assay with Aβ42 [4] it was 132 nM. Further, the “Aβ42 (% Ctrl) _Mean” value in the assay on Aβ42 [3] was 24 % Ctrl.
For `COc1c(-n2cnc(C)c2)ccc(-c2nc(Nc3cc(C(F)(F)F)ccc3F)n(C)n2)c1F` [Compound 320], in that order: 8 % Ctrl, greater than 10000 nM, 45 nM and 23 % Ctrl.
For `COc1cc(-c2nc(Nc3c(F)cccc3Cl)n(C)n2)ccc1-n1cnc(C)c1` [Compound 125], in that order: 11 % Ctrl, greater than 10000 nM, 85 nM and 2 % Ctrl.
For `COc1cc(-c2nc(Nc3cc(C(F)(F)F)ccc3C(F)(F)F)n(C)n2)ccc1-n1cnc(C)c1` [Compound 144], in that order: 9 % Ctrl, greater than 10000 nM, 9 nM and 38 % Ctrl.
Regarding `COc1ccc(C)c(Nc2nc(-c3ccc(-n4cnc(C)c4)c(OC)c3)nn2C)c1` [Compound 199], the “Aβtotal (% Ctrl) _Mean” value in the assay with Aβtotal [1] is 5 % Ctrl. Moreover, the IC50 is greater than 10000 nM with Aβtotal [2] and 16 nM with Aβ42 [4]. The “Aβ42 (% Ctrl) _Mean” value with Aβ42 [3] is on record as 39 % Ctrl.
The matching figures for `COc1cc(-c2nc(Nc3cccc(F)c3Cl)n(C)n2)ccc1-n1cnc(C)c1` [Compound 114]: 9 % Ctrl, greater than 10000 nM, 56 nM and 53 % Ctrl.
Take `COc1nc(-c2nc(Nc3cccc(F)c3C(F)(F)F)n(C)n2)ccc1-n1cnc(C)c1` [Compound 138]: in the assay on Aβtotal [1], the “Aβtotal (% Ctrl) _Mean” value was 17 % Ctrl. For the same compound, the IC50 with Aβtotal [2] was greater than 10000 nM; in the assay on Aβ42 [4], 50 nM. Moreover, in the assay on Aβ42 [3], the “Aβ42 (% Ctrl) _Mean” value was found to be 46 % Ctrl.
The matching figures for `COc1cc(-c2nc(Nc3ccccc3OC(F)F)n(C)n2)ccc1-n1cnc(C)c1` [Compound 310]: 20 % Ctrl, greater than 10000 nM, 44 nM and 45 % Ctrl.
For `COc1cc(-c2nc3n(n2)CCC[C@H]3c2ccccc2Cl)ccc1-n1cnc(C)c1` [Compound 255], in that order: 11 % Ctrl, 9330 nM, 32 nM and 21 % Ctrl.
In the case of `COc1nc(-c2nc(N3CCCC(c4ccccc4)C3)n(C(C)C)n2)ccc1-n1cnc(C)c1.Cl` (racemic) [Compound 80], the “Aβtotal (% Ctrl) _Mean” value in the assay with Aβtotal [1] is listed as −19 % Ctrl. The values for the IC50 with Aβtotal [2] and with Aβ42 [4] were 10000 nM and 56 nM, respectively. Moreover, in the assay with Aβ42 [3], the “Aβ42 (% Ctrl) _Mean” value is on record as −20 % Ctrl.
For `COc1nc(-c2nc(Nc3ccccc3C(F)(F)F)n(C)n2)ccc1-n1cnc(C)c1` [Compound 132], in that order: −1 % Ctrl, greater than 10000 nM, 135 nM and 39 % Ctrl.
For `COc1nc(-c2nc3n(n2)CCCC3c2cc(C(F)(F)F)ccc2C)ccc1-n1cnc(C)c1` (stereo not drawn) [Compound 343], in that order: 18 % Ctrl, greater than 10000 nM, 15 nM and 64 % Ctrl.
The matching figures for `COc1cc(-c2nc(Nc3cc(C(F)(F)F)cc(C(F)(F)F)c3)n(C)n2)ccc1-n1cnc(C)c1` [Compound 150]: −8 % Ctrl, greater than 10000 nM, 13 nM and −6 % Ctrl.
`COc1cc(C(F)(F)F)cc(Nc2nc(-c3ccc(-n4cnc(C)c4)c(OC)n3)nn2C)c1F` [Compound 353]: in the assay with Aβtotal [1], the “Aβtotal (% Ctrl) _Mean” value stood at 2 % Ctrl. Also, the values for the IC50 in the assay with Aβtotal [2] and with Aβ42 [4] were greater than 10000 nM and 17 nM, respectively. Besides, the “Aβ42 (% Ctrl) _Mean” value with Aβ42 [3] is reported as 63 % Ctrl.
The matching figures for `COc1cc(-c2nc(Nc3ccc(F)c(C(F)(F)F)c3)n(C)n2)ccc1-n1cnc(C)c1` [Compound 152]: −9 % Ctrl, greater than 10000 nM, 19 nM and 10 % Ctrl.
For `COc1nc(-c2nc(Nc3cccc(F)c3Cl)n(C)n2)ccc1-n1cnc(C)c1` [Compound 302], in that order: −3 % Ctrl, greater than 10000 nM, 71 nM and 31 % Ctrl.
